From US20250382273A1 (INSTITUT NATIONAL DE LA SANTE ET DE LA RECHERCHE MEDICALE, priority 2022, published 2025)

The molecules below were run on M. tuberculosis H37Rv_gfp. Conditions: in combination with pretomanid 20 ng·mL−1; 5 days at 37° C.; […]; read-out: EC50 H37Rv_gfp.
Format: cell-based, Mycobacterium tuberculosis

SMILES	EC50
O=C1[C@@H]2[C@H](C(=O)N1c1nc3ccc(-c4ccoc4)cc3s1)[C@@H]1C=C[C@H]2C1 [Example 70, (1R,2S,6R,7S)-4-[6-(3-furyl)-1,3-benzothiazol-2-yl]-4-azatricyclo[5.2.1.02,6]dec-8-ene-3,5-dione]	1 to 5 µM
O=C(Nc1nc2ccc(F)cc2s1)[C@@H]1C2C=CC(C2)[C@@H]1C(=O)O (stereo partly drawn) [Example 42, 3-[(6-fluoro-1,3-benzothiazol-2-yl)carbamoyl]bicyclo[2.2.1]hept-5-ene-2-carboxylic acid]	1 to 5 µM
O=C1C2C3C=CC(C3)C2C(=O)N1c1nc2ccc(-c3ccccc3C(F)(F)F)cc2s1 [Example 58, (1R,2S,6R,7S)-4-[6-[[2-(trifluoromethyl)phenyl]-1,3-benzothiazol-2-yl]-4-azatricyclo [5.2.1.02,6]dec-8-ene-3,5-dione]	5 to 10 µM
Cc1ccnc(Nc2ccc3nc(NC(=O)[C@@H]4C5C=CC(C5)[C@@H]4C(=O)O)sc3c2)c1 (stereo partly drawn) [Example 84, 3-[[6-[(4-methyl-2-pyridyl)amino]-1,3-benzothiazol-2-yl]carbamoyl]bicyclo[2.2.1]hept-5-ene-2-carboxylic acid]	1 to 5 µM
O=C(Nc1nc2ccc(-c3ccc4ncccc4c3)cc2s1)[C@@H]1C2C=CC(C2)[C@@H]1C(=O)O (stereo partly drawn) [Example 81, 3-[[6-(6-quinolyl)-1,3-benzothiazol-2-yl]carbamoyl]bicyclo[2.2.1]hept-5-ene-2-carboxylic acid]	1 to 5 µM
O=C(Nc1nc2ccc(-c3ccc(OC(F)(F)F)cc3)cc2s1)[C@@H]1C2C=CC(C2)[C@@H]1C(=O)O (stereo partly drawn) [Example 62, 3-[[6-[4-(trifluoromethoxy)phenyl]-1,3-benzothiazol-2-yl]carbamoyl]bicyclo[2.2.1]hept-5-ene-2-carboxylic acid]	< 1 µM
O=C1[C@@H]2[C@H](C(=O)N1c1nc3ccc(-c4ccc(C(F)(F)F)nc4)cc3s1)[C@@H]1C=C[C@H]2C1 [Example 67, (1R,2S,6R,7S)-4-[6-[6-(trifluoromethyl)-3-pyridyl]-1,3-benzothiazol-2-yl]-4-azatricyclo [5.2.1.02,6]dec-8-ene-3,5-dione]	1 to 5 µM
O=C(Nc1nc2ccc(Cc3ccccc3)cc2s1)[C@@H]1C2C=CC(C2)[C@@H]1C(=O)O (stereo partly drawn) [Example 20, 3-[(6-benzyl-1,3-benzothiazol-2-yl)carbamoyl]bicyclo[2.2.1]hept-5-ene-2-carboxylic acid]	< 1 µM
Cc1ccc(-c2ccc3nc(NC(=O)[C@@H]4C5C=CC(C5)[C@@H]4C(=O)O)sc3c2)cc1 (stereo partly drawn) [Example 53, 3-[[6-(p-tolyl)-1,3-benzothiazol-2-yl]carbamoyl]bicyclo[2.2.1]hept-5-ene-2-carboxylic acid]	< 1 µM
O=C1[C@@H]2[C@H](C(=O)N1c1nc3ccc(Oc4ccccc4)cc3s1)[C@@H]1C=C[C@H]2C1 [Example 19, (1R,2S,6R,7S)-4-(6-phenoxy-1,3-benzothiazol-2-yl)-4-azatricyclo[5.2.1.02,6]dec-8-ene-3,5-dione]	< 1 µM
O=C1[C@@H]2[C@H](C(=O)N1c1nc3ccc(Oc4cccc(C(F)(F)F)n4)cc3s1)[C@@H]1C=C[C@H]2C1 [Example 34, (1R,2S,6R,7S)-4-[6-[[6-(trifluoromethyl)-2-pyridyl]oxy]-1,3-benzothiazol-2-yl]-4-azatricyclo[5.2.1.02,6]dec-8-ene-3,5-dione]	1 to 5 µM
O=C(Nc1nc2ccc(-c3ccc(C(F)(F)F)cc3)cc2s1)[C@@H]1C2C=CC(C2)[C@@H]1C(=O)O (stereo partly drawn) [Example 60, 3-[[6-[4-(trifluoromethyl)phenyl]-1,3-benzothiazol-2-yl]carbamoyl]bicyclo[2.2.1]hept-5-ene-2-carboxylic acid]	< 1 µM
O=C(Nc1nc2ccc(-c3ccoc3)cc2s1)[C@@H]1C2C=CC(C2)[C@@H]1C(=O)O (stereo partly drawn) [Example 69, 3-[[6-(3-furyl)-1,3-benzothiazol-2-yl]carbamoyl]bicyclo[2.2.1]hept-5-ene-2-carboxylic acid]	< 1 µM
O=C(Nc1nc2ccc(-c3ccccc3)cc2s1)[C@@H]1C2C=CC(C2)[C@@H]1C(=O)O (stereo partly drawn) [Example 51]	< 1 µM
O=C(Nc1nc2ccc(-c3ccc(Cl)cc3)cc2s1)[C@@H]1C2C=CC(C2)[C@@H]1C(=O)O (stereo partly drawn) [Example 55, 3-[[6-(4-chlorophenyl)-1,3-benzothiazol-2-yl]carbamoyl]bicyclo[2.2.1]hept-5-ene-2-carboxylic acid]	< 1 µM
COc1cc2nc(NC(=O)[C@@H]3C4C=CC(C4)[C@@H]3C(=O)O)sc2cc1OC (stereo partly drawn) [Example 9, 3-[(5,6-dimethoxy-1,3-benzothiazol-2-yl)carbamoyl]bicyclo[2.2.1]hept-5-ene-2-carboxylic acid]	5 to 10 µM
CCc1ccc2nc(NC(=O)[C@@H]3C4C=CC(C4)[C@@H]3C(=O)O)sc2c1 (stereo partly drawn) [Example 11, 3-[(6-ethyl-1,3-benzothiazol-2-yl)carbamoyl]bicyclo[2.2.1]hept-5-ene-2-carboxylic acid]	< 1 µM

SMILES	EC50
Cc1cccc2sc(NC(=O)[C@@H]3C4C=CC(C4)[C@@H]3C(=O)O)nc12 (stereo partly drawn) [Example 16, 3-[(4-methyl-1,3-benzothiazol-2-yl)carbamoyl]bicyclo[2.2.1]hept-5-ene-2-carboxylic acid]	< 1 µM
O=C(Nc1nc2ccc(-c3ccc(Cl)c(Cl)c3)cc2s1)[C@@H]1C2C=CC(C2)[C@@H]1C(=O)O (stereo partly drawn) [Example 56, 3-[[6-(3,4-dichlorophenyl)-1,3-benzothiazol-2-yl]carbamoyl]bicycle [2.2.1]hept-5-ene-2-carboxylic acid]	< 1 µM
O=C(Nc1nc2ccc(Cl)cc2s1)[C@@H]1C2C=CC(C2)[C@@H]1C(=O)O (stereo partly drawn) [Example 46, 3-[(6-chloro-1,3-benzothiazol-2-yl)carbamoyl]bicyclo[2.2.1]hept-5-ene-2-carboxylic acid]	1 to 5 µM
Cc1ccnc(Oc2ccc3nc(N4C(=O)[C@@H]5C6C=CC(C6)[C@@H]5C4=O)sc3c2)c1 [Example 30]	< 1 µM
O=C1[C@@H]2C3C=CC(C3)[C@@H]2C(=O)N1c1nc2ccc(Nc3cccc(F)n3)cc2s1 [Example 89, 4-[6-[(6-fluoro-2-pyridyl)amino]-1,3-benzothiazol-2-yl]-4-azatricyclo[5.2.1.02,6]dec-8-ene-3,5-dione]	1 to 5 µM
O=C(Nc1nc2ccc(-c3ccc(N4CCCCC4)cc3)cc2s1)[C@@H]1C2C=CC(C2)[C@@H]1C(=O)O (stereo partly drawn) [Example 100]	< 1 µM
O=C(Nc1nc2ccc(Oc3ccc(F)cc3)cc2s1)[C@@H]1C2C=CC(C2)[C@@H]1C(=O)O (stereo partly drawn) [Example 21, 3-[[6-(4-fluorophenoxy)-1,3-benzothiazol-2-yl]carbamoyl]bicyclo[2.2.1]hept-5-ene-2-carboxylic acid]	< 1 µM
O=C(O)C1C2C=CC(C2)C1C(=O)Nc1nc2ccc([N+](=O)[O-])cc2s1 (stereo not drawn) [Example 38, 3-[(6-nitro-1,3-benzothiazol-2-yl)carbamoyl]bicyclo[2.2.1]hept-5-ene-2-carboxylic acid]	1 to 5 µM
O=C1[C@@H]2C3C=CC(C3)[C@@H]2C(=O)N1c1nc2ccc(Nc3ccnc(C(F)(F)F)c3)cc2s1 [Example 90, 4-[6-[[2-(trifluoromethyl)-4-pyridyl]amino]-1,3-benzothiazol-2-yl]-4-azatricyclo[5.2.1.02,6]dec-8-ene-3,5-dione]	< 1 µM
CCOc1ccc2nc(NC(=O)[C@@H]3C4C=CC(C4)[C@@H]3C(=O)O)sc2c1 (stereo partly drawn) [Example 7, 3-[(6-ethoxy-1,3-benzothiazol-2-yl)carbamoyl]bicyclo[2.2.1]hept-5-ene-2-carboxylic acid]	< 1 µM
O=C(Nc1nc2ccc(Nc3ccnc(F)c3)cc2s1)[C@@H]1C2C=CC(C2)[C@@H]1C(=O)O (stereo partly drawn) [Example 99, 3-[[6-[(2-fluoro-4-pyridyl)amino]-1,3-benzothiazol-2-yl]carbamoyl]bicyclo[2.2.1]hept-5-ene-2-carboxylic acid]	5 to 10 µM
O=C1[C@@H]2C3C=CC(C3)[C@@H]2C(=O)N1c1nc2ccc(Nc3cccc(C(F)(F)F)n3)cc2s1 [Example 97, 4-[6-[[6-(trifluoromethyl)-2-pyridyl]amino]-1,3-benzothiazol-2-yl]-4-azatricyclo[5.2.1.02,6]dec-8-ene-3,5-dione]	< 1 µM
O=C1[C@@H]2[C@H](C(=O)N1c1nc3ccc(-c4ccsc4)cc3s1)[C@@H]1C=C[C@H]2C1 [Example 68, (1R,2S,6R,7S)-4-[6-(3-thienyl)-1,3-benzothiazol-2-yl]-4-azatricyclo[5.2.1.02,6]dec-8-ene-3,5-dione]	1 to 5 µM
O=C1[C@@H]2C3C=CC(C3)[C@@H]2C(=O)N1c1nc2ccc(-c3ccc(F)nc3)cc2s1 [Example 65, (1R,2S,6R,7S)-4-[6-(6-fluoro-3-pyridyl)-1,3-benzothiazol-2-yl]-4-azatricyclo[5.2.1.02.6]dec-8-ene-3,5-dione]	1 to 5 µM
O=C(Nc1nc2ccc(Br)cc2s1)[C@@H]1C2C=CC(C2)[C@@H]1C(=O)O (stereo partly drawn) [Example 47, 3-[(6-bromo-1,3-benzothiazol-2-yl)carbamoyl]bicyclo[2.2.1]hept-5-ene-2-carboxylic acid]	< 1 µM
Cc1ccnc(Oc2ccc3nc(NC(=O)[C@@H]4C5C=CC(C5)[C@@H]4C(=O)O)sc3c2)c1 (stereo partly drawn) [Example 29, 3-[[6-[(4-methyl-2-pyridyl)oxy]-1,3-benzothiazol-2-yl]carbamoyl]bicyclo[2.2.1]hept-5-ene-2-carboxylic acid]	< 1 µM

Same assay, conditions: in combination with pretomanid, unit inferred; read-out: average EC50 H37Rv_gfp

SMILES	EC50
O=C(Nc1nc2ccc(-c3ccc(C(F)(F)F)cc3)cc2s1)[C@@H]1C2C=CC(C2)[C@@H]1C(=O)O (stereo partly drawn) [Example 60, 3-[[6-[4-(trifluoromethyl)phenyl]-1,3-benzothiazol-2-yl]carbamoyl]bicyclo[2.2.1]hept-5-ene-2-carboxylic acid]	0.05 µM
O=C(Nc1nc2ccc(Oc3ccc(F)cc3)cc2s1)[C@@H]1C2C=CC(C2)[C@@H]1C(=O)O (stereo partly drawn) [Example 21, 3-[[6-(4-fluorophenoxy)-1,3-benzothiazol-2-yl]carbamoyl]bicyclo[2.2.1]hept-5-ene-2-carboxylic acid]	0.27 µM
CCOc1ccc2nc(NC(=O)[C@@H]3C4C=CC(C4)[C@@H]3C(=O)O)sc2c1 (stereo partly drawn) [Example 7, 3-[(6-ethoxy-1,3-benzothiazol-2-yl)carbamoyl]bicyclo[2.2.1]hept-5-ene-2-carboxylic acid]	0.15 µM

Same assay, conditions: read-out: EC50 H37Rv_gfp

SMILES	EC50
O=C1[C@@H]2C3C=CC(C3)[C@@H]2C(=O)N1c1nc2ccc(Nc3ccnc(F)c3)cc2s1 [Example 98, 4-[6-[(2-fluoro-4-pyridyl)amino]-1,3-benzothiazol-2-yl]-4-azatricyclo[5.2.1.02,6]dec-8-ene-3,5-dione]	5 to 10 µM
O=C1[C@@H]2[C@H](C(=O)N1c1nc3ccc(Oc4cc(C(F)(F)F)ccn4)cc3s1)[C@@H]1C=C[C@H]2C1 [Example 28, (1R,2S,6R,7S)-4-[6-[[4-(trifluoromethyl)-2-pyridyl]oxy]-1,3-benzothiazol-2-yl]-4-azatricyclo[5.2.1.02,6]dec-8-ene-3,5-dione]	< 1 µM
O=C(Nc1nc2ccc(O)cc2s1)[C@@H]1C2C=CC(C2)[C@@H]1C(=O)O (stereo partly drawn) [Example 50, 3-[(6-hydroxy-1,3-benzothiazol-2-yl)carbamoyl]bicyclo[2.2.1]hept-5-ene-2-carboxylic acid]	10 to 20 µM
